Where two headings read alike, the source gives them in different places.
Molecular target: T1, Nicotiana tabacum protoporphyrinogen oxidase (NtPPO) (Nicotiana tabacum, UniProt O24164)
T1 construct: gene PPXII
T1 sequence (O24164 1-504): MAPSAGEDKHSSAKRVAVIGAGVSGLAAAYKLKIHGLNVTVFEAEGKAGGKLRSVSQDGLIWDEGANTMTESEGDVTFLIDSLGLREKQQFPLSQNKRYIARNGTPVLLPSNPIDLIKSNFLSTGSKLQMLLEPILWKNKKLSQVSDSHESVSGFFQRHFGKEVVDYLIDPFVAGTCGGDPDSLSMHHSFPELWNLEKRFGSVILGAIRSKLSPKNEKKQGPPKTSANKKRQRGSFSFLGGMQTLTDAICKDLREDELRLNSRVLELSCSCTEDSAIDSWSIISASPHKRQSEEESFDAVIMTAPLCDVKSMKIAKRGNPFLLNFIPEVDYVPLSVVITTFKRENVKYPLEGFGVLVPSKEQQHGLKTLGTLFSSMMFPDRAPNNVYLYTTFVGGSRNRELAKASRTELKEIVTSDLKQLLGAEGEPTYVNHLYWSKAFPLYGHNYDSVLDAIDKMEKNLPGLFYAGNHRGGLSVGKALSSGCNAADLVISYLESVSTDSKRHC
Test: NtPPO inhibition in vitro, protoporphyrin IX formation by absorbance at […] nm
Type: biochemical

Compound | IC50 (read-out: IC50) [µM] | IC50 [µM]
CS(=O)(=O)NC(=O)c1cc(Oc2ccc(C(F)(F)F)cc2Cl)ccc1[N+](=O)[O-] [fomesafen] | 0.11 ± 0.0012 | –
FC(F)(F)Oc1ccc(COc2ccc(-c3ncc(C(F)(F)F)cc3Cl)cc2)cc1 [7a, 3-Chloro-2-(4-((4-(trifluoromethoxy)benzyl)oxy)phenyl)-5-(trifluoromethyl)pyridine] | – | 0.0094 ± 0.0022

— paper PMC9570041, “Synthesis of Novel α-Trifluoroanisole Derivatives Containing Phenylpyridine Moieties with Herbicidal Activity” (International Journal of Molecular Sciences, 2022)
